Reference: patent US10576078B2 (Council of Scientific & Industrial Research, priority 2017, dated 2020)
Read-outs that look alike come from different tables or passages of the source.

Columns and labels:
K562 cells = experiment: K562 cell viability, CellTiter-Glo luminescent assay; type: cell-based, Human; conditions: Homo sapiens, 48 h
Experimental: K562 cells were treated with indicated concentrations of CFZ for 24 h or 48 h, cell viability was then assessed using the CellTiter-Glo luminescent cell viability assay (Promega). Data is mean±SEM of three independent experiments (each in triplicates). IC50 was calculated using Graphpad prism 5 software.
K562 cells were treated as indicated for 48 h and cell viability was determined by CellTiter-Glo luminescent cell viability assay (A) graphical representation of mean±SEM of three independent experiments.
(§1) Determination of CFZ's Effect on Cell Viability and Apoptosis • a. CellTitre-Glo assay: Cell viability (in FIG. 1B, FIG. 4 and FIG. 6A) assays was performed using the ATP-based CellTiter-Glo Luminescent cell viability assay (Promega Madison, Wis.) as per the manufacturer's instruction. Briefly, (1.25×10^5) K562 cells/ml (FIG. 1B and FIG. 4) or CD34+ cells from healthy donors (FIG. 6A) were cultured in 48-well plates and were treated as indicated in the respective figures and figure descriptions (vehicle; V=0.1% DMSO). Cells were then incubated with CellTitre-Glo reagent for 15 min. Luminescence was recorded in a GloMax-96 Microplate luminometer (Promega, Madison, Wis.) with an integration time of 1 s per well. • b. Analysis of apoptosis by Annexin V staining and flow cytometry • K562 (FIG. 1C-D) and primary CP-CML cells (FIG. 1H-I) were cultured in 6 well plates (2×10^5 cells/well) and were treated with indicated concentrations of compounds as described in respective figures and their descriptions. Cells were then harvested and washed, and incubated in binding buffer (Annexin V Binding Buffer, BD Pharmingen) with 0.3% Annexin V-FITC and PI for 15 min at room temperature in dark. Apoptosis was measured by FACSCalibur flow cytometer (Becton Dickenson, San Jose, Calif.). • c. TUNEL assay • Pro-apoptotic potential was analysed using a Fluorometric APO-BrdU™ TUNEL Assay Kit (Invitrogen) according to the manufacturer's protocol (FIG. 1F). Cells were treated with Vehicle (0.1% DMSO) or CFZ (5 μM) for 48 h. Cells were then fixed in formaldehyde (4%) for 25 min at 4° C., permeabilized with 0.2% Triton-X100 and washed with PBS. Cells were then incubated in Terminal Deoxynucleotidyl Transferase (TdT) reaction buffer without TdT enzyme for 7 minutes at room temperature and then in TdT buffer with TdT enzyme at 37° C. in dark. After termination of TdT reaction, cells were stained with 5 μg/ml of PI for 15 min in dark followed by washing and analysed with fluorescence microscopy.

[1] = system: CD34+ cells from healthy donors
Experimental: as §1

[2] = rat, in vivo, po
Excerpt: (§2) Sprague-Dawley rats (n=6 per group) were divided into 3 groups. […] Plasma was separated and processed for analysis by LC-MS/MS. For pharmacokinetic and statistical analysis, plasma concentration versus time data were plotted and analyzed by non-compartmental analysis method using WinNonlin (Pharsight, Mountain View, Calif.) software.
as §2, with “For this SD” for “Sprague-Dawley”

[3] = system: CD34+ cells from imatinib-resistant patients (quiescent LSCs); experiment: CFSE assay of quiescent LSCs; type: cell-based, Human; conditions: n=3, 96 h
Experimental: Cells were gated depending on CFSE intensity. […] Apoptosis in these cells was determined by annexin V staining.
For assessing apoptosis in quiescent LSCs, purified CD34^+ cells were first stained with carboxyfluorescein succinimidyl ester (CFSE; Invitrogen) for 30 min. Cells were then washed and resuspended in SFM medium with 5 growth factors and were kept at 37° C. overnight. Next day, cells were treated as indicated in SFM medium with growth factors and were maintained further for 4 days with supplementation of the drugs every 48 h (drug concentrations in FIG. 5 and its description). Cells were then harvested, washed, and were labeled with CD34-PE and Annexin-APC antibodies and then gated into non-dividing cells (CD34^+CFSE^bright) and dividing cell (CD34^+CFSE^dim) population based on CFSE fluorescence intensity. […] Number of cells or apoptosis was determined by flowcytometry.

CrkL = experiment: Immunoblotting of CrkL phosphorylation in K562 cells; type: cell-based, Human; conditions: 30 min, Y207
Experimental: K562 cells were treated as indicated for 30 min and stat5 phosphorylation at Y694 or CrkL phosphorylation at Y207 were assessed by immunoblotting. Total stat5 or β-actin expression was assessed to ensure equal loading. Pio was used as a negative control and IMT was used as a positive control. Data is one representative of 3 independent experiments.
K562 cells were cultured in 6 well plates and treated as indicated in figures or descriptions of FIG. 1E, FIG. 1G and FIG. 2D-E. Cells were then homogenized in lysis buffer containing 50 mM Tris-HCl, pH 7.5, 150 mM NaCl, 1% NP40, 5 mM EDTA, 1 mM DTT, protease and phosphatase inhibitor cocktails (Sigma) and incubated on ice for 30 min followed by 5 cycles of freeze-thaw. Samples were then centrifuged at 14000 rpm at 4° C. for 30 min. Supernatants were then quantified by Bichinchonic acid (Sigma)-based protein estimation. Equal amount of proteins were solubilized in Laemmli buffer, and were resolved by 10%-12% SDS PAGE and transferred onto PVDF membranes (Millipore; Billerica, Mass.). Membranes were blocked in 5% (w/v) non-fat dried milk powder (Sigma) in PBS containing 0.2% Tween 20 (Sigma). […] Immunoreactivity was detected using a chemiluminescent HRP Substrate (Millipore) in a LAS 4010 Chemi-doc Imager (GE Healthcare, Little Chalfont, UK). […]

| SMILES | IC50 (K562 cells; drug alone, FIG. 4A, read-out: IC50, K562 cell viability assay (48 h)) | IC50 (K562 cells; in presence of CFZ, read-out: IC50 of dasatinib in presence of CFZ) | viability of CD34+ hematopoietic progenitor cells from healthy controls [1] | Tmax in combination group compared to individual groups [2] | number of CFSE-bright (non-dividing) cells [3] | CrkL phosphorylation (CrkL) |
| --- | --- | --- | --- | --- | --- | --- |
| Cc1nc(Nc2ncc(C(=O)Nc3c(C)cccc3Cl)s2)cc(N2CCN(CCO)CC2)n1 [dasatinib, Dasatinib] | 640 nM | 12.4 nM |  |  |  |  |
| Cc1ccc(NC(=O)c2ccc(CN3CCN(C)CC3)cc2)cc1Nc1nccc(-c2cccnc2)n1 [imatinib, Imatinib] |  |  | No loss of survival | no change | failed to reduce | successfully inhibited |
